Assay results as given in patent US8377945B2, “Small molecule inhibitors of spleen tyrosine kinase (SYK)” (Rigel Pharmaceuticals Inc., priority 2009, dated 2013).

These compounds were tested against T1, Syk kinase (Homo sapiens, UniProt P43405) (assay: ELISA-based Syk kinase assay (phosphorylation of HS1 peptide substrate by isolated Syk kinase)). Conditions: IC50 of Syk kinase inhibition; 2 μM ATP, 2 μM peptide substrate.
T1 construct: purchased Millipore 14-314
Type: biochemical
Description: Compounds were tested for the ability to inhibit Syk kinase catalyzed phosphorylation of a peptide substrate in an assay with isolated Syk kinase.
An assay was carried out in a Costar white 96 well plate (Fisher Scientific, Cat No. 07-200-591) coated overnight with 0.01 mg/ml Neutravidin (Pierce, 100 μl/well) at 4° C. Neutravidin pre-coated 96 well plates were blocked with 2% BSA in PBST buffer for at least 1 hour before starting the assay at room temperature. Serially diluted compound stock solution containing a subject compound was prepared separately in DMSO solution starting from 300 μM and 2 μl of this diluted compound (3% DMSO final concentration) was added directly to neutravidin coated assay plate containing 55.5 μl/well of kinase reaction buffer composed of 20 mM HEPES, pH 7.4, 5 mM MgCl2, 2 mM MnCl2, 1 mM DTT, 0.01% Tween 20 pre-mixed with ATP and kinase substrate (HS1 peptide). Reaction was initiated by adding of 2.5 μl/well Syk kinase (Millipore, Cat No. 14-314) resulting in a final reaction volume of 60 μl and then the reaction was allowed to continue for 30 minutes at room temperature. Final enzyme reaction conditions were 20 mM HEPES, pH 7.4, 5 mM MgCl2, 2 mM MnCl2, 1 mM DTT, 0.01% Tween 20, 0.25 ng Syk, 2 μM ATP, 2 μM peptide substrate (Biotin-EQEDEPEGDYEEVLE-CONH2, SynPep Corporation). After completing the reaction, assay plate was washed three times with PBST and incubated for 1 hour at room temperature with 100 μl/well of phosphopeptide detection antibody solution prepared by mixing 1-1000 diluted mouse anti-pTyr monoclonal antibody (Cell Signal Technology, Cat No. 9411) and 1-1000 diluted goat HRP-conjugated anti-mouse IgG (Jackson Immunoresearch, Cat. No. 115-035-003). Before developing the plate with supersignal ELISA pico chemiluminescent substrate (Pierce), plate was washed three times again with PBST and were read on a SpectraMax M5 microplate reader (Moleculear Devices).

| SMILES | IC50 [µM] |
| --- | --- |
| COc1ccc(Nc2c(-c3cc(F)c(F)c(F)c3)[nH]c3c(C#N)cnn23)cc1OC [Compound 57] | 3 to 25 |
| COc1cc(-c2[nH]c3c(C#N)cnn3c2Nc2ccc(N3CCC(N4CCCC4)CC3)c(F)c2)cc(OC)c1OC [Compound 75] | 0.51 to 2.99 |
| COc1cc(Nc2c(-c3ccc4cc[nH]c4c3)[nH]c3c(C#N)cnn23)cc(OC)c1OC [Compound 26] | 3 to 25 |
| COc1cc(-c2[nH]c3c(C#N)cnn3c2NC(=O)c2ccc(C(F)(F)F)c(F)c2)cc(OC)c1OC [Compound 18] | 3 to 25 |
| COc1cccc(C(=O)Nc2c(-c3cc(OC)c(OC)c(OC)c3)[nH]c3c(C#N)cnn23)c1 [Compound 21] | > 25 |
| COc1cc(-c2[nH]c3c(C#N)cnn3c2Nc2ccc3c(c2)OCCO3)cc(O)c1OC [Compound 70] | 0.51 to 2.99 |
| N#Cc1cnn2c(Nc3ccc(Br)cc3)c(-c3ccc(N4CCOCC4)cc3)[nH]c12 [Compound 80] | 0.51 to 2.99 |
| COC(=O)c1ccc(Nc2c(-c3cc(O)c(OC)c(OC)c3)[nH]c3c(C#N)cnn23)cc1 [Compound 71] | 0.51 to 2.99 |
| COc1cc(-c2[nH]c3c(C#N)cnn3c2Nc2ccc(OC(F)(F)F)cc2)cc(OC)c1OC [Compound 131] | 0.51 to 2.99 |
| COc1cc(-c2[nH]c3c(C#N)cnn3c2NCC2CCNCC2)cc(OC)c1OC [Compound 74] | 3 to 25 |
| COc1ccc(Nc2c(-c3ccc(F)cc3F)[nH]c3c(C#N)cnn23)cc1OC [Compound 36] | 3 to 25 |
| COc1ccc(-c2[nH]c3c(C#N)cnn3c2Nc2ccc(NC(C)=O)cc2)cc1OC [Compound 69] | 0.51 to 2.99 |
| COc1cccc(CNc2c(-c3ccc4c(c3)NC(=O)CO4)[nH]c3c(C#N)cnn23)c1 [Compound 35] | 3 to 25 |
| COC(=O)COc1ccc(-c2[nH]c3c(C#N)cnn3c2Nc2cccc(C(=O)OC)c2)cc1OC [Compound 84] | 0.51 to 2.99 |
| COc1ccc(Nc2c(-c3ccc(F)c(F)c3)[nH]c3c(C#N)cnn23)cc1OC [Compound 37] | 0.51 to 2.99 |
| N#Cc1cccc(Nc2c(-c3ccc4c(c3)NC(=O)CO4)[nH]c3c(C#N)cnn23)c1 [Compound 9] | 3 to 25 |
| COc1ccc(CCNc2c(-c3cc(OC)c(OC)c(OC)c3)[nH]c3c(C#N)cnn23)cc1OC [Compound 41] | > 25 |
| COC(=O)c1cccc(Nc2c(-c3ccc(OC)c(OCC(=O)O)c3)[nH]c3c(C#N)cnn23)c1 [Compound 86] | 0.51 to 2.99 |
| COc1ccc(CC(=O)Nc2c(-c3cc(OC)c(OC)c(OC)c3)[nH]c3c(C#N)cnn23)cc1OC [Compound 42] | > 25 |
| COc1cc(-c2[nH]c3c(C#N)cnn3c2NC(=O)c2ccc(F)cc2)cc(OC)c1OC [Compound 20] | 3 to 25 |
| COc1cc(-c2[nH]c3c(C#N)cnn3c2Nc2ccc(Cl)c(Cl)c2)cc(OC)c1OC [Compound 22] | 0.51 to 2.99 |
| COc1cc(Nc2c(-c3cc(OC)c(OC)c(OC)c3)[nH]c3c(C#N)cnn23)ccc1OC1CCCC1 [Compound 128] | 0.51 to 2.99 |
| COc1cc(-c2[nH]c3c(C#N)cnn3c2NC(=O)c2nnc(-c3ccccc3)o2)cc(OC)c1OC [Compound 39] | 3 to 25 |
| CC(=O)Nc1ccc(-c2[nH]c3c(C#N)cnn3c2Nc2cccc(NC(C)=O)c2)cc1 [Compound 34] | 3 to 25 |
| COc1cc(-c2[nH]c3c(C#N)cnn3c2NC(=O)COc2ccccc2)cc(OC)c1OC [Compound 54] | > 25 |
| COc1cc(-c2[nH]c3c(C#N)cnn3c2NCC2CCN(C(=O)OC(C)(C)C)CC2)cc(OC)c1OC [Compound 73] | 3 to 25 |
| COc1cc(-c2[nH]c3c(C#N)cnn3c2Nc2ccc(F)c(C(F)(F)F)c2)cc(OC)c1OC [Compound 130] | 0.51 to 2.99 |
| CC(=O)Nc1ccc(Nc2c(-c3ccc4c(c3)OCCO4)[nH]c3c(C#N)cnn23)cc1 [Compound 63] | 3 to 25 |

| SMILES | IC50 [µM] |
| --- | --- |
| COc1cc(-c2[nH]c3c(C#N)cnn3c2NC(C)(C)CC(C)(C)C)cc(OC)c1OC [Compound 11] | > 25 |
| COc1cc(Nc2c(-c3ccc(N4CCOCC4)cc3)[nH]c3c(C#N)cnn23)cc(OC)c1OC [Compound 79] | 3 to 25 |
| N#Cc1cnn2c(Nc3ccc(N4CCOCC4)cc3)c(-c3ccc4cc[nH]c4c3)[nH]c12 [Compound 27] | 0.51 to 2.99 |
| COc1cc(-c2[nH]c3c(C#N)cnn3c2Nc2ccc(OC)c(OC)c2)ccc1F [Compound 59] | 0.51 to 2.99 |
| COC(=O)c1cccc(Nc2c(-c3ccc(OC)c(OC)c3)[nH]c3c(C#N)cnn23)c1 [Compound 77] | 0.51 to 2.99 |
| COc1ccc(Nc2c(-c3cc(OC)c(OC)c(OC)c3)[nH]c3c(C#N)cnn23)cc1OC1CCCC1 [Compound 115] | 0.51 to 2.99 |
| COc1cc(-c2[nH]c3c(C#N)cnn3c2Nc2ccc(N3CCCC3)c(F)c2)cc(OC)c1OC [Compound 134] | 0.51 to 2.99 |
| COc1ccc(-n2cc(C#N)c3nc(-c4cc(OC)c(OC)c(OC)c4)c(N)n32)cc1 [Compound 82] | 3 to 25 |
| COc1cc(-c2[nH]c3c(C#N)cnn3c2Nc2ccc(CNC(=O)OC(C)(C)C)cc2)cc(OC)c1OC [Compound 65] | 0.51 to 2.99 |
| COc1cc(-c2[nH]c3c(C#N)cnn3c2Nc2ccc(CN)cc2)cc(OC)c1OC [Compound 66] | 3 to 25 |
| COC(=O)[C@H](Cc1ccccc1)Nc1c(-c2cc(OC)c(OC)c(OC)c2)[nH]c2c(C#N)cnn12 [Compound 76] | 3 to 25 |
| COc1cc(Nc2c(-c3cc(OC)c(OC)c(OC)c3)[nH]c3c(C#N)cnn23)cc(OC)c1OC [Compound 29] | 3 to 25 |
| COc1cc(-c2[nH]c3c(C#N)cnn3c2Nc2ccc(C)c(F)c2)cc(OC)c1OC [Compound 121] | 0.51 to 2.99 |
| COC(=O)COc1ccc(-c2[nH]c3c(C#N)cnn3c2Nc2ccc(F)c(OC)c2)cc1OC [Compound 123] | 0.51 to 2.99 |
| COc1cc(-c2[nH]c3c(C#N)cnn3c2NC(=O)c2ccccc2)cc(OC)c1OC [Compound 19] | 3 to 25 |
| COc1cc(-c2[nH]c3c(C#N)cnn3c2NC(=O)CBr)cc(OC)c1OC [Compound 53] | > 25 |
| CC(=O)Nc1ccc(Nc2c(-c3ccc4c(c3)NC(=O)CO4)[nH]c3c(C#N)cnn23)cc1 [Compound 68] | 3 to 25 |
| COC(=O)c1cccc(Nc2c(-c3cc(OC)c(OC)c(OC)c3)[nH]c3c(C#N)cnn23)c1 [Compound 67] | 0.51 to 2.99 |
| CC(=O)Nc1cccc(Nc2c(-c3ccc4c(c3)NC(=O)CO4)[nH]c3c(C#N)cnn23)c1 [Compound 31] | 0.51 to 2.99 |
| COc1cc(Nc2c(-c3ccc(C(N)=O)cc3)[nH]c3c(C#N)cnn23)cc(OC)c1OC [Compound 81] | 3 to 25 |
| COc1cc(Nc2c(-c3cc(OC)c(OC)c(OC)c3)[nH]c3c(C#N)cnn23)ccc1OCCN1CCCC1 [Compound 129] | 0.51 to 2.99 |
| COc1ccc2c(-c3[nH]c4c(C#N)cnn4c3Nc3ccc(NC(C)=O)cc3)c[nH]c2c1 [Compound 62] | 3 to 25 |
| COc1ccc(Nc2c(Cc3ccccc3)[nH]c3c(C#N)cnn23)cc1OC [Compound 55] | 3 to 25 |
| N#Cc1cnn2c(Nc3ccc4c(c3)OCCO4)c(-c3ccc4cc[nH]c4c3)[nH]c12 [Compound 60] | 3 to 25 |
| COc1ccc(CCNc2c(-c3ccc4c(c3)NC(=O)CO4)[nH]c3c(C#N)cnn23)cc1OC [Compound 40] | 3 to 25 |
| COc1cc(-c2[nH]c3c(C#N)cnn3c2N)cc(OC)c1OC [Compound 17] | 3 to 25 |
| COc1ccc(Nc2c(-c3cc(Cl)c(OC)c(OC)c3)[nH]c3c(C#N)cnn23)cc1OC [Compound 58] | 0.51 to 2.99 |
